The record followed here is patent US11976066B1 (priority 2023, dated 2024).

In general, MIC refers to the smallest concentration in the dilution series that meets the test's criterion for growth inhibition.

In brackets after ≈: the same amount, converted by molar mass. Read-outs that look alike come from different tables or passages of the source.

The experiment deals with Mycobacterium tuberculosis H37Rv. Put plainly: Resazurin Microplate Assay (REMA), anti-tubercular activity, susceptible strain. The class given is cell-based. Conditions: 192 h.
Setting [1] is: H37Rv strain, 8 days incubation at 37° C, Middlebrook 7H9 broth, read-out: MIC Susceptible (H37Rv).

For `CCOC(=O)c1cc(C(=O)c2ccccc2[N+](=O)[O-])n2ccc(N)cc12` [Compound 3b, Ethyl 7-amino-3-(2-nitrobenzoyl)indolizine-1-carboxylate], the MIC under setting [1] is roughly 8 µg/mL (≈ 22.6 µM).
Still for that read-out and setting: under `CCOC(=O)c1cc(C(=O)c2ccc(Br)cc2)n2ccc(N)cc12` [Compound 3e, Ethyl 7-amino-3-(4-bromobenzoyl)indolizine-1-carboxylate] stands roughly 32 µg/mL (≈ 82.6 µM).
For `CCOC(=O)c1cc(C(=O)c2ccc(F)cc2)n2ccc(N)cc12` [Compound 3a, Ethyl 7-amino-3-(4-fluorobenzoyl)indolizine-1-carboxylate], the MIC (read-out: MIC Susceptible (H37Rv), H37Rv strain, 8 days incubation at 37° C, Middlebrook 7H9 broth) is roughly 16 µg/mL (≈ 49 µM).
